# From patent publication US11564975B2, “Use of GHRP-6 as late cardioprotective and cardiac restoration medicament” (Centro de Ingeniería Genética y Biotecnología, priority 2018, dated 2023)
# Values joined by “and” are separate entries in the source; they are usually repeats but may differ in a detail not shown here. Equal values may be shown once. “Also recorded” adds a separate entry of the source.
# What was measured:
# [1] = test system: AMI with ST segment elevation; test: First cohort: patients with AMI with ST segment elevation, GHRP-6 immediately after angioplasty; type: in vivo, human
# Experimental: First cohort. Comprising 19 patients over 30 years old, of both sexes, with a diagnosis of AMI with ST segment elevation, all with occlusion of the anterior descending artery, first episode, who arrived at a cardiology department before 12 hours of implantation of the precordial pain. The average door-ball time was 6 hours. All patients received primary percutaneous transluminal angioplasty, and immediately after the culprit artery flow was restored they received treatment with GHRP-6. In some patients, the treatment was performed by intra-coronary flushing, after the flow was restored. Residual lesions occupied less than 25% of the initial occlusion area, so it was considered as a TIMI 3, according to the Coronary Risk Score known as TIMI. In other cases, the first administration was performed by a central-venous route, just at the time of reperfusion, in the hemodynamic room. GHRP-6 was administered at a dose of 100 μg/kg of body weight, twice a day, for 7 days, time spent in the coronary intensive care hospital room. […]
# Grade IV heart failure = test: Compassionate treatment of patients with Grade IV heart failure awaiting heart transplantation; type: in vivo, human; conditions: for Cardiac output (L/m) / LVEF % / Oxygen consumption / Systolic volume: individual patients
# Source text: This is a cohort of 7 patients, who received the compassionate treatment with GHRP-6, under informed consent. All patients were in advanced heart failure, evaluated as functional class grade IV, according to the scale of the New York Heart Association. These patients were hospitalized in specialized cardiology services of two hospitals, and the ischemic heart disease, the idiopathic dilated cardiomyopathy, the heart valve disease, and the postpartum dilated cardiomyopathy were considered as the underlying condition for heart failure. […] They had minimal effort dyspnea, inability to adequately fulfill the 6 minutes' walk test, and instability in fluid balance and renal function, despite the diet control and the treatment with diuretics, the restriction of salt and the monitoring body weight.
# All patients received between 50 and 200 μg of GHRP-6/kg body weight, two or three times a day, according to medical criteria, by intravenous route. All treatments were performed while the patients were awaiting for heart transplantation. The treatment period with GHRP-6 was between 25 days and 30 days per cycle.
# A cycle of treatment with GHRP-6 was performed every three months. The maximum was three cycles. All patients were maintained with previous medical treatments, based on digital, diuretics, renin-angiotensin-aldosterone axis inhibitors (neurohormones) and pressor amines when required.
# [2] = test system: AMI with a ST Segment elevation; test: AMI in pigs, one hour circumflex artery clamping followed by reperfusion; type: in vivo, female pigs of the Yorkshire breed; conditions: for Infarction Area (%): day 10
# Experimental: (§1) The objective of the study was to evaluate, and to compare, the therapeutic impact of the late administration of GHRP-6 on functional parameters of the left ventricle, regarding the effect of the peptide acutely administered. Another objective was to assess the effect of late treatment in a group of animals in which the reperfusion was not performed.
# (§2) The implementation of the AMI was performed in female pigs of the Yorkshire breed, with body weight of 22-27 kg. The anesthesia was induced with propofol, midazolam and pancuronium, by intravenous route. Under general anesthesia, obtained with a mixture of isofluorane/oxygen and nitrous oxide the ischemia was provoked. It was induced by a thoracotomy between the fifth and sixth intercostal spaces, until reaching the left circumflex artery, which was occluded by a 30 mm arterial clamping for one hour. Immediately, the record of the electrocardiogram and the heart rate was taken, every 20 seconds. At the end of 60 minutes of occlusion, the clamping was released, and so began the reperfusion phase, to complete the 10 days after ischemia. For the experimental group without reperfusion, that simulates the state called as non-reflux, a permanent ligation of the circumflex artery, with surgical thread, was performed. Both procedures, clamping and permanent ligation, induce an AMI with a ST Segment elevation. The recording of heart rate and electrocardiogram continued until the superficial suture of the thorax. The animals were sacrificed, by exsanguination, on the tenth day after the ischemia episode was induced. Under an anesthetic overdose, the determination of the area of the AMI was made, by means of the calculation of the area at risk with Evans blue.
# (§3) For the echocardiographic evaluation, the pigs were previously sedated with a mixture of propofol/midazolam. A Kontron ultrasound system, Sigma 1 AC Cardio model, equipped with 3.5-7.5 MHz mechanical-cardiac sector transducers was used.
# (§4) The parameters evaluated were the following: • Left Ventricle Ejection Fraction (LVEF), estimated by the Teich method. • Left Ventricle Tele-Systolic and Tele-diastolic Pressures. • Infarction Area, estimated on the area at risk (%).
# (§5) Seven animals per group were used. In all groups, the animals received treatment every 12 hours, for 10 days after ischemia. The administrations of GHRP-6 or placebo were performed through a central catheter. In the case of the groups that received the peptide, it was diluted in 10 ml of physiological saline. The essence of the study was to evaluate the influence of the time of initiation of treatment on functional parameters and size of the ventricular not viable territory.
# [3] = test system: AMI with elevated ST segment; test: Second cohort: AMI patients with low cardiac output syndrome / cardiogenic shock, late treatment with GHRP-6; type: in vivo, human; conditions: for LVEF: individual patients, late treatment, echocardiography at 90 days
# Experimental: Second cohort. Comprising 13 patients over 30 years old, of both sexes, with a diagnosis of AMI with elevated ST segment, who received percutaneous transluminal angioplasty before 12 hours of implantation of precordial pain. All these patients evolved in an unfavorable way, and with uncertain prognosis between 24 and 96 hours after a successful endoluminal reperfusion, according to the imaging criteria all were considered as TIMI grade 3.
# This led to the decision of establishing an alternative treatment with GHRP-6, to try to reduce dyskinesia of the ventricular musculature, to attenuate the process of presumed stunning, to dampen hypoxia, and to rescue from death a territory of ischemic ventricular mass. The patients who implanted a reinfarction received rescue angioplasty. One of these patients died during the procedure. None of the patients met criteria for the coronary revascularization practice. In these cases, the first administration of the peptide was carried out at least after 48 hours of torpid evolution after a TIMI 3. During the treatment time, the GHRP-6 was administered intravenously, every 12 hours.
# [4] = test system: AMI with a ST Segment elevation; test: AMI in pigs without reperfusion (non-reflux), permanent ligation of the circumflex artery; type: in vivo, female pigs of the Yorkshire breed
# Experimental: as §1, §2, §3, §4, §5
# [5] = 30 days after PTA, 100 μg/kg twice a day for 7 days
# [6] = 90 days after PTA, 100 μg/kg twice a day for 7 days
# [7] = start of treatment, minutes after the PTA (baseline)
# [8] = after treatment, 50-200 μg/kg two or three times a day intravenously
# [9] = Group 2: 400 μg/kg every 12 h for 10 days, onset immediately at the beginning of reperfusion
# [10] = Group 3: 400 μg/kg every 12 h, onset 72 hours after the start of reperfusion
# [11] = Group 4: 400 μg/kg every 12 h, onset 5 days after the start of reperfusion
# [12] = Group 5: no reperfusion, 400 μg/kg every 12 h, onset one hour after the artery was permanently clamped
substance,measurement,setting,value
growth hormone releasing peptide-6 [GHRP-6],LVEF %,[1]; [5],51 ± 8.6%
same,SPWT (mm),[1]; [5],11.6 ± 0.7 mm
same,SSF %,[1]; [5],35 ± 6.5%
same,SST (mm),[1]; [5],10.3 ± 1.6 mm
same,Telediastolic volumen,[1]; [5],87 ± 11 mL
same,Telesystolic volume,[1]; [5],65 ± 23 mL
same,LVEF %,[1]; [6],57 ± 6.6%
same,SPWT (mm),[1]; [6],11.3 ± 1.8 mm
same,SSF %,[1]; [6],42 ± 9.6%
same,SST (mm),[1]; [6],10.7 ± 1 mm
same,Telediastolic volumen,[1]; [6],111 ± 16 mL
same,Telesystolic volume,[1]; [6],49 ± 8 mL
same,LVEF %. Mean ± SD,"[1]; Cohort 1, acute treatment, 90 days after treatment",57.0 ± 6.61%
same,clinical evolution of the patients,"[1]; first cohort, GHRP-6 after successful angioplasty (TIMI 3)","favorable evolution, without further important complications; also recorded: progressive improvement over time"
same,LVEF %,[1]; [7],38 ± 5.9%
same,SSF %,[1]; [7],27 ± 2.6%
same,Telediastolic volumen,[1]; [7],81 ± 14 mL
same,Telesystolic volume,[1]; [7],77 ± 12 mL
same,SPWT (mm),"[1]; start of treatment, minutes after the PTA (baseline), echocardiography",10.1 ± 2 mm
same,overall response to treatment,Grade IV heart failure; Grade IV heart failure patients in the transplant pool,"restore cardiac, hemodynamic, ventilatory and clinical constants"
same,Cardiac output (L/m),Grade IV heart failure; [8],4.3 L/m and 3.8 L/m and 2.9 L/m and 3.2 L/m (2×) and 3.08 L/m and 2.89 L/m
same,LVEF %,Grade IV heart failure; [8],28% and 30% and 29% and 23% and 25% and 31% and 26%
same,Oxygen consumption,Grade IV heart failure; [8],7.7 mL/min/kg and 7 mL/min/kg and 6.4 mL/min/kg and 7.2 mL/min/kg and 7.6 mL/min/kg and 6.6 mL/min/kg and 9.5 mL/min/kg
same,Systolic volume,"Grade IV heart failure; after treatment, 50-200 μg/kg two or three times a day intravenously, in mL (unit assumed)",50 and 54 and 60 and 56 and 49 and 47 and 51
same,Cardiac output (L/m),Grade IV heart failure; before treatment,3.2 L/m and 2.7 L/m and 1.89 L/m and 2.17 L/m and 2.41 L/m and 2.1 L/m and 1.98 L/m
same,LVEF %,Grade IV heart failure; before treatment,20% (2×) and 19% and 21% (2×) and 22% and 18%
same,Oxygen consumption,Grade IV heart failure; before treatment,4.12 mL/min/kg and 3.91 mL/min/kg and 3.05 mL/min/kg and 4.1 mL/min/kg and 3.87 mL/min/kg and 4.2 mL/min/kg and 3.63 mL/min/kg
same,Systolic volume,Grade IV heart failure; before treatment,29 (2×) and 30 and 31 and 35 and 25 and 27
same,LV telediastolic pressure (mmHg),[2]; [9],4.6 ± 1.1 mmHg
same,LV telesystolic pressure (mmHg),[2]; [9],80 ± 2.2 mmHg
same,LVEF %,[2]; [9],80 ± 2.5%
same,Infarction Area (%),[2]; [9],31.6 ± 5.2%
same,LV telediastolic pressure (mmHg),[2]; [10],4.4 ± 1.6 mmHg
same,LV telesystolic pressure (mmHg),[2]; [10],81 ± 3.0 mmHg
same,LVEF %,[2]; [10],77 ± 4.1%
same,Infarction Area (%),[2]; [10],35.4 ± 6.4%
same,LV telediastolic pressure (mmHg),[2]; [11],5.2 ± 0.8 mmHg
same,LV telesystolic pressure (mmHg),[2]; [11],77 ± 3.1 mmHg
same,LVEF %,[2]; [11],60 ± 6.6%
same,Infarction Area (%),[2]; [11],37.0 ± 4.3%
same,diastolic pressure compared to the placebo group,"[2]; all groups that received GHRP-6, regardless of when treatment started",significant reduction
same,LVEF rescued,"[2]; medicated from 5 days after the ischemic event, versus placebo",22%
same,decline of LVEF compared to baseline physiological conditions,[2]; start of treatment on the fifth day,21%
same,infarct size effect: treatment in parallel to reperfusion versus started 72 hours later,[2]; statistical comparison of Groups 2 and 3,no significant statistically differences
same,ventricular territory (area at risk) rescued from death,[2]; treatment initiated on the 5th day after ischemia,8%
same,reduction of the size of myocardial infarction in comparison to placebo,[2]; treatment started 72 hours after reperfusion,~13%
same,LVEF %. Mean ± SD,"[3]; Cohort 2, late treatment, 90 days after treatment",50.8 ± 5.34%
same,interval to suspension of vasopressor amines,[3]; after start of peptide treatment,~96 h
same,LVEF,[3]; 100 μg/kg every 12 hours,LVEF of 63%; also recorded: LVEF of 48%; also recorded: LVEF of 50%; also recorded: LVEF of 52%; also recorded: LVEF of 56%; also recorded: LVEF of 45%
same,LVEF,[3]; 200 μg/kg every 12 hours,LVEF of 47%; also recorded: LVEF of 51%; also recorded: LVEF of 46%
same,patients in whom suspension of vasopressor amines was achieved,"[3]; patients evaluated, after start of peptide treatment",8 out of 10
same,surviving patients of the 13 critical patients,[3]; second cohort,12
same,LV telediastolic pressure (mmHg),[4]; [12],5.1 ± 1.9 mmHg
same,LV telesystolic pressure (mmHg),[4]; [12],80 ± 2.6 mmHg
same,LVEF %,[4]; [12],72 ± 5.5%
same,Infarction Area (%),"[4]; Group 5: no reperfusion, 400 μg/kg every 12 h, onset one hour after the artery was permanently clamped, day 10",36.1 ± 2.8%
same,reduction of the area of ventricular death,[4]; no reperfusion,12%
same,LVEF difference with baseline conditions,"[4]; non-reflux group, without reperfusion",9%
